Data: patent US20070196816A1, “Engineered stimulus-responsive switches” (priority 2000, published 2007)

Columns and labels:
[1] = target: GST-Bcl2 (Homo sapiens, UniProt P10415); conditions: specific binding; Rodi et al.; cited from earlier work
[2] = system: lambda phage; assay: Immunity experiments: plaque formation on lambda phage infection of LE392 cells containing engineered repressors, with and without taxol; type: cell-based; conditions: 30° C., scored at 24 and 48 hours
From the text: There are multiple ways to evaluate lambda repressor function. One such method exploits the central role of the repressor in controlling the decision of lambda phage to enter the lytic or the lysogenic phase. In the presence of a high concentration of functional cI in the bacterial cell, entering lambda phage are pushed into the lysogenic phase. In the absence of cI, bacteria are susceptible to infection by lambda phage: the lysed cells manifest as plaques on a bacterial lawn. The level of functional cI in a cell determines whether incoming phage will continue to enter the lytic cycle or choose the lysogenic cycle, when the phage is integrated into the host genome. Cells with functional cI can thus display immunity to phage superinfection. In addition it is also possible to conduct in vitro experiments, such as electrophoretic mobility shift assays where binding of purified protein to labeled oligonucleotide duplexes can be monitored.
The repressors were placed under the control of a constitutive promoter (tet promoter) in a pUNI (Invitrogen) donor vector. […]
Five sets of experiments have been done with each of the cI-bZIP, TBD-cI-bZIP, and TBD-ΔK-cI-bZIP constructs. […] Plaque phenotype was scored at 24 and 48 hours of incubation at 30° C. The number of plaques was counted for three experiments using 3-5 replicates for each set.

Chain of GST-Bcl2 (P10415 whole entry): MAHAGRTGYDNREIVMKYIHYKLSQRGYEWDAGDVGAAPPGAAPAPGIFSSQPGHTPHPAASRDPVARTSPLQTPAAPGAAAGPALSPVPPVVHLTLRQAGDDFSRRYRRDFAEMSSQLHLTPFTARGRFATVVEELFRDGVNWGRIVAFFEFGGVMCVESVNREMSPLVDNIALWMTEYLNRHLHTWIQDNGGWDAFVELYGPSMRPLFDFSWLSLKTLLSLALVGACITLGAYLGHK

Row | Compound | Kd of taxol binding to GST-Bcl2 [1] | Change of plaque phenotype/size on addition of taxol ([2]; 100 uM taxol in culture and top agar) | Plaque phenotype (size) on infection with lambda phage ([2]; LE392 cells containing the repressor, absence of taxol)
1 | CC(=O)O[C@H]1C(=O)[C@@]2(C)[C@H]([C@H](OC(=O)c3ccccc3)[C@]3(O)C[C@H](OC(=O)[C@H](O)[C@@H](NC(=O)c4ccccc4)c4ccccc4)C(C)=C1C3(C)C)[C@]1(OC(C)=O)CO[C@@H]1C[C@@H]2O [taxol] | nanomolar range | – | –
2 | cI-bZIP: chimeric repressor: DNA binding domain and linker of lambda repressor (cI aa 1-132) fused to GCN4 leucine zipper; SEQ ID NO: 12 | – | not changed | miniscule plaques barely visible to the eye
